This experiment has as its system HPV16 PsVs. In words: Co-localization of HPV16 PsV with endosomal marker CD63 in HaCaT cells (confocal microscopy). It counts as cell-based. Particulars: 1 μM added 1 h after PsVs, further 7 h. As to the method: FIG. 9. PolyR inhibits HPV16 L2 protein cleavage by furin and induces accumulation of internalized virus particles in late endosomal fraction. (A) Equal amount of HPV16 diluted in 50 μl furin assay buffer (1 mM CaCl2), 100 mM HEPES, 0.5% Triton X-100, 1 mM β-mercaptoethanol) was loaded into six tubes, and subsequently incubated for two hours at 30° C. without any inhibitor, in the presence of 1.3 μM furin inhibitor1 (Merck Millipore Corp., Burlington, Mass.), or 1 μM polyR. Samples were mixed with SDS-PAGE sample buffer and boiled before fractionation on 9% gel. Proteins were transferred onto PVDF membranes and after blocking, incubated with affinity-purified rabbit anti-HPV16 polyclonal antibody. Secondary donkey anti-rabbit horseradish peroxidase-coupled antibody was used for detection of HPV16 capsid proteins. (B) HaCaT cells grown on coverslips were incubated with HPV16 PsVs for one hour at 37° C. to initiate virus binding (and partial internalization) before adding 1 μM polyR and further incubated for seven hours. After the incubation, cells were fixed and stained for HPV16 and endogenous CD63, using primary anti-HPV16 rabbit polyclonal and anti-CD63 mouse monoclonal antibodies (Santa Cruz Biotechnology, Inc., Dallas, Tex.). […]

Turning to poly-L-arginine [polyR], the “co-localization of HPV16 and CD63” value is “significantly increased co-localization of HPV16 and CD63”.

Values taken from patent publication US11045519B2, “Arginine-rich polypeptide compositions and methods of using same” (UNM Rainforest Innovations, priority 2017, dated 2021).
